According to patent US8309546B2, “Morpholinopurine derivatives” (Daiichi Sankyo Company, Limited, priority 2008, dated 2012):

Target: T1, human mTOR (His-tagged mTOR (1362C)) (Homo sapiens, UniProt P42345)
T1 construct: the 1362 to 2549 amino acid portion on the C terminus side of human mTOR; His tag (N); made in house
Experiment: mTOR kinase activity inhibition assay
Type: biochemical
Conditions: HTRF, read-out: IC50 against mTOR
In short: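 Crude His-tagged mTOR (aa 1362–2549) from stable HEK293 cells, with 8 μg/ml biotinylated peptide in 50 mM HEPES pH 7.5, 20 mM MnCl2; compound diluted in 20 μM ATP solution, reaction 3 h at room temperature. Phospho-peptide detected by HTRF (anti-phospho-S6K Thr389 cryptate/streptavidin-XL665, overnight at 4°C), 665/620 nm ratio. IC50 derived from curve fit of % inhibition.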

T1 sequence (P42345 1362-2549): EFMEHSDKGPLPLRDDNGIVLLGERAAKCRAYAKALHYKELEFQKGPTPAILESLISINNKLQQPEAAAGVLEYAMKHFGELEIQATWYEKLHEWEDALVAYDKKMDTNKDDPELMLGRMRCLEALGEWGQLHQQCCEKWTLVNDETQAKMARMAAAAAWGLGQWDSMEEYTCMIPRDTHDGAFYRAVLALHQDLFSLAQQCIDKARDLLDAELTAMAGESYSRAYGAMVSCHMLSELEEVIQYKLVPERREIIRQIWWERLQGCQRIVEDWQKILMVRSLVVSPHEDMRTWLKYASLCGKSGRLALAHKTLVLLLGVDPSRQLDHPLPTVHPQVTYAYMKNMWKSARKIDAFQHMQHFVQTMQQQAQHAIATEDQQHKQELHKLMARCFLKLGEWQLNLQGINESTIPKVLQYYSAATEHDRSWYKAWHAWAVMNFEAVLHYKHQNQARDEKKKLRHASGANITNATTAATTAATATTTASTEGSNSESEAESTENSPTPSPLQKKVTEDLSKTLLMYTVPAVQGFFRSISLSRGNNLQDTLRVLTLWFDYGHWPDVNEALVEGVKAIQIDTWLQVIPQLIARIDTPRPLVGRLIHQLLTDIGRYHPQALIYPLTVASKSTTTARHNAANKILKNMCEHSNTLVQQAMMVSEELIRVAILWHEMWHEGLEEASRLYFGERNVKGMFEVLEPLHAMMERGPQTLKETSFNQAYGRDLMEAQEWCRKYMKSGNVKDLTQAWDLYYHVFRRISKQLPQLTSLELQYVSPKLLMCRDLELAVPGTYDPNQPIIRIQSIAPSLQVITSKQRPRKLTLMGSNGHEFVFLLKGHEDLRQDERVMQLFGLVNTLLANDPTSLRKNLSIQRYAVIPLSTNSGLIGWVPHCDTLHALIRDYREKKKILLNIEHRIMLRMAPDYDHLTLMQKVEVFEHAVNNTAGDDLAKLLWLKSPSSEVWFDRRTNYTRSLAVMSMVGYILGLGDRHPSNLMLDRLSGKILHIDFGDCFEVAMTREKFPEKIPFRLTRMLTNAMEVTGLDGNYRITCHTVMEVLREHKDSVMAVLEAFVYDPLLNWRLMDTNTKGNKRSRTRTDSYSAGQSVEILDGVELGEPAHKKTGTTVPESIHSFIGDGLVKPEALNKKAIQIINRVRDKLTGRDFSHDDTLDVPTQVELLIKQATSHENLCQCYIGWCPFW

Row | SMILES | IC50
1 | CC(C)Cn1c(N2CCN(C(=O)C[C@H](C)O)CC2)nc2c(N3CCOCC3)nc(-c3cnc(N)nc3)nc21 [Example 82, (2S)-4-{4-[2-(2-Aminopyrimidin-5-yl)-9-isobutyl-6-morpholin-4-yl-9H-purin-8-yl]piperazin-1-yl}-4-oxobutan-2-ol] | 10 to 30 nM
2 | CC(C)Cn1c(N2CCN(C(=O)C[C@@H](C)O)[C@@H](C)C2)nc2c(N3CCOCC3)nc(-c3cnc(N)nc3)nc21 [Example 83, (2R)-4-{(2S)-4-[2-(2-Aminopyrimidin-5-yl)-9-isobutyl-6-morpholin-4-yl-9H-purin-8-yl]-2-methylpiperazin-1-yl}-4-oxobutan-2-ol] | < 10 nM
3 | CC(C)Cn1c(N2CCN(C(=O)C[C@@H](C)O)[C@H](C)C2)nc2c(N3CCOCC3)nc(-c3cnc(N)nc3)nc21 [Example 84, (2R)-4-{(2R)-4-[2-(2-Aminopyrimidin-5-yl)-9-isobutyl-6-morpholin-4-yl-9H-purin-8-yl]-2-methylpiperazin-1-yl}-4-oxobutan-2-ol] | 10 to 30 nM
4 | CC(C)Cn1c(N2CCN(C(=O)C[C@H](C)O)[C@@H](C)C2)nc2c(N3CCOCC3)nc(-c3cnc(N)nc3)nc21 [Example 85, (2S)-4-{(2S)-4-[2-(2-Aminopyrimidin-5-yl)-9-isobutyl-6-morpholin-4-yl-9H-purin-8-yl]-2-methylpiperazin-1-yl}-4-oxobutan-2-ol] | < 10 nM
5 | CC(C)Cn1c(N2CCN(C(=O)C[C@H](C)O)[C@H](C)C2)nc2c(N3CCOCC3)nc(-c3cnc(N)nc3)nc21 [Example 86, (2S)-4-{(2R)-4-[2-(2-Aminopyrimidin-5-yl)-9-isobutyl-6-morpholin-4-yl-9H-purin-8-yl]-2-methylpiperazin-1-yl}-4-oxobutan-2-ol] | 10 to 30 nM
6 | CNc1ncc(-c2nc(N3CCOCC3)c3nc(N4CCN(CC(=O)N(C)C)[C@H](C)C4)n(CC(F)(F)F)c3n2)cn1 [Example 87, N,N-Dimethyl-2-[(2R)-2-methyl-4-{2-[2-(methylamino)pyrimidin-5-yl]-6-morpholin-4-yl-9-(2,2,2-trifluoroethyl)-9H-purin-8-yl}piperazin-1-yl]acetamide] | 10 to 30 nM
7 | CC(=O)N1CCN(c2nc3c(N4CCOCC4)nc(-c4cnc(N)nc4)nc3n2CC2CC2)C[C@@H]1C [Example 96, 5-{8-[(3S)-4-Acetyl-3-methylpiperazin-1-yl]-9-(cyclopropylmethyl)-6-morpholin-4-yl-9H-purin-2-yl}pyrimidin-2-amine] | < 10 nM
8 | CC(=O)N1CCN(c2nc3c(N4CCOCC4)nc(-c4cnc(N)nc4)nc3n2CC2CC2)C[C@H]1C [Example 97, 5-{8-[(3R)-4-Acetyl-3-methylpiperazin-1-yl]-9-(cyclopropylmethyl)-6-morpholin-4-yl-9H-purin-2-yl}pyrimidin-2-amine] | 10 to 30 nM
9 | CC(=O)N1[C@H](C)CN(c2nc3c(N4CCOCC4)nc(-c4cnc(N)nc4)nc3n2CC2CC2)C[C@@H]1C [Example 98, 5-{8-[4-Acetyl-cis-3,5-dimethylpiperazin-1-yl]-9-(cyclopropylmethyl)-6-morpholin-4-yl-9H-purin-2-yl}pyrimidin-2-amine] | < 10 nM
10 | CC(=O)N1CCN(c2nc3c(N4CCOCC4)nc(-c4cnc(N)nc4)nc3n2CC(C)C)C[C@H]1C [Example 99, 5-{8-[(3R)-4-Acetyl-3-methylpiperazin-1-yl]-9-isobutyl-6-morpholin-4-yl-9H-purin-2-yl}pyrimidin-2-amine] | 10 to 30 nM
11 | CC(C)Cn1c(N2CCN(C(=O)[C@H](C)O)[C@H](C)C2)nc2c(N3CCOCC3)nc(-c3cnc(N)nc3)nc21 [Example 103, (2S)-1-{(2R)-4-[2-(2-Aminopyrimidin-5-yl)-9-isobutyl-6-morpholin-4-yl-9H-purin-8-yl]-2-methylpiperazin-1-yl}-1-oxopropan-2-ol] | 10 to 30 nM
12 | CC(C)Cn1c(N2CCN(C(=O)[C@H](C)O)[C@@H](C)C2)nc2c(N3CCOCC3)nc(-c3cnc(N)nc3)nc21 [Example 104, (2S)-1-{(2S)-4-[2-(2-Aminopyrimidin-5-yl)-9-isobutyl-6-morpholin-4-yl-9H-purin-8-yl]-2-methylpiperazin-1-yl}-1-oxopropan-2-ol] | 10 to 30 nM
13 | CNc1ncc(-c2nc(N3CCOCC3)c3nc(N4CCN(S(C)(=O)=O)[C@@H](C)C4)n(CC(F)(F)F)c3n2)cn1 [Example 105, N-Methyl-5-{8-[(3S)-3-methyl-4-(methylsulfonyl)piperazin-1-yl]-6-morpholin-4-yl-9-(2,2,2-trifluoroethyl)-9H-purin-2-yl}pyrimidin-2-amine] | < 10 nM
14 | CNc1ncc(-c2nc(N3CCOCC3)c3nc(N4CCN(S(C)(=O)=O)[C@H](C)C4)n(CC(F)(F)F)c3n2)cn1 [Example 106, N-Methyl-5-{8-[(3R)-3-methyl-4-(methylsulfonyl)piperazin-1-yl]-6-morpholin-4-yl-9-(2,2,2-trifluoroethyl)-9H-purin-2-yl}pyrimidin-2-amine] | < 10 nM
15 | C[C@H]1CN(c2nc3c(N4CCOCC4)nc(-c4cnc(N)nc4)nc3n2CC(F)(F)F)CCN1C=O [Example 111, (2S)-4-[2-(2-Aminopyrimidin-5-yl)-6-morpholin-4-yl-9-(2,2,2-trifluoroethyl)-9H-purin-8-yl]-2-methylpiperazine-1-carboaldehyde] | < 10 nM
16 | C[C@@H]1CN(c2nc3c(N4CCOCC4)nc(-c4cnc(N)nc4)nc3n2CC(F)(F)F)CCN1C=O [Example 112, (2R)-4-[2-(2-Aminopyrimidin-5-yl)-6-morpholin-4-yl-9-(2,2,2-trifluoroethyl)-9H-purin-8-yl]-2-methylpiperazine-1-carboaldehyde] | < 10 nM
17 | C[C@@H](O)C(=O)N1CCN(c2nc3c(N4CCOCC4)nc(-c4cnc(N)nc4)nc3n2CC2CC2)C[C@@H]1C [Example 113, (2R)-1-{(2S)-4-[2-(2-Aminopyrimidin-5-yl)-9-(cyclopropylmethyl)-6-morpholin-4-yl-9H-purin-8-yl]-2-methylpiperazin-1-yl}-1-oxopropan-2-ol] | < 10 nM
18 | C[C@@H]1CN(c2nc3c(N4CCOCC4)nc(-c4cnc(N)nc4)nc3n2CC2CC2)CCN1C(=O)[C@@H](C)O [Example 114, (2R)-1-{(2R)-4-[2-(2-Aminopyrimidin-5-yl)-9-(cyclopropylmethyl)-6-morpholin-4-yl-9H-purin-8-yl]-2-methylpiperazin-1-yl}-1-oxopropan-2-ol] | 10 to 30 nM
19 | CC(=O)N1[C@H](C)CN(c2nc3c(N4CCOCC4)nc(-c4cnc(N)nc4)nc3n2CC(F)(F)F)C[C@@H]1C [Example 115, 5-[8-(4-Acetyl-cis-3,5-dimethylpiperazin-1-yl)-6-morpholin-4-yl-9-(2,2,2-trifluoroethyl)-9H-purin-2-yl]pyrimidin-2-amine] | < 10 nM
20 | C[C@@H]1CN(c2nc3c(N4CCOCC4)nc(-c4cnc(N)nc4)nc3n2CC(F)(F)F)C[C@H](C)N1C=O [Example 116, 4-[2-(2-Aminopyrimidin-5-yl)-6-morpholin-4-yl-9-(2,2,2-trifluoroethyl)-9H-purin-8-yl]-cis-2,6-dimethylpiperazine-1-carboaldehyde] | < 10 nM
21 | CCC(=O)N1CCN(c2nc3c(N4CCOCC4)nc(-c4cnc(N)nc4)nc3n2CC(F)(F)F)CC1 [Example 117, 5-[6-Morpholin-4-yl-8-(4-propionylpiperazin-1-yl)-9-(2,2,2-trifluoroethyl)-9H-purin-2-yl]pyrimidin-2-amine] | < 10 nM
22 | CC(=O)N1CCN(c2nc3c(N4CCOCC4)nc(-c4cnc(N)nc4)nc3n2CC(F)(F)F)CC12CC2 [Example 119, 5-[8-(4-Acetyl-4,7-diazaspiro[2.5]oct-7-yl)-6-morpholin-4-yl-9-(2,2,2-trifluoroethyl)-9H-purin-2-yl]pyrimidin-2-amine] | 10 to 30 nM
23 | CC(=O)N1CCN(c2nc3c(N4CCOC[C@@H]4C)nc(-c4cnc(N)nc4C)nc3n2CC2CC2)CC1 [Example 128, 5-{8-(4-acetylpiperazin-1-yl)-9-(cyclopropylmethyl)-6-[(3S)-3-methylmorpholin-4-yl]-9H-purin-2-yl}-4-methylpyrimidin-2-amine] | 100 to 500 nM
24 | CC(=O)N1CCN(c2nc3c(N4CCOC[C@@H]4C)nc(-c4cnc(N)nc4)nc3n2CC(C)C)CC1 [Example 129, 5-{8-(4-Acetylpiperazin-1-yl)-9-isobutyl-6-[(3S)-3-methylmorpholin-4-yl]-9H-purin-2-yl}pyrimidin-2-amine] | 10 to 30 nM
25 | CC(C)Cn1c(N2CCN(C(=O)CO)CC2)nc2c(N3CCOC[C@@H]3C)nc(-c3cnc(N)nc3)nc21 [Example 130, 2-(4-{2-(2-Aminopyrimidin-5-yl)-9-isobutyl-6-[(3S)-3-methylmorpholin-4-yl]-9H-purin-8-yl}piperazin-1-yl)-2-oxoethanol] | < 10 nM
26 | CC(C)Cn1c(N2CCN(C(=O)[C@H](C)O)CC2)nc2c(N3CCOC[C@@H]3C)nc(-c3cnc(N)nc3)nc21 [Example 131, (2S)-1-(4-{2-(2-Aminopyrimidin-5-yl)-9-isobutyl-6-[(3S)-3-methylmorpholin-4-yl]-9H-purin-8-yl}piperazin-1-yl)-1-oxopropan-2-ol] | 10 to 30 nM
27 | CC(C)Cn1c(N2CCN(C=O)CC2)nc2c(N3CCOC[C@@H]3C)nc(-c3cnc(N)nc3)nc21 [Example 132, 4-{2-(2-Aminopyrimidin-5-yl)-9-isobutyl-6-[(3S)-3-methylmorpholin-4-yl]-9H-purin-8-yl}piperazine-1-carboaldehyde] | 10 to 30 nM
28 | CNc1ncc(-c2nc(N3CCOCC3)c3nc(N4CCN(C(C)=O)CC4)n(CC(F)(F)F)c3n2)cn1 [Example 134, 5-[8-(4-Acetylpiperazin-1-yl)-6-morpholin-4-yl-9-(2,2,2-trifluoroethyl)-9H-purin-2-yl]-N-methylpyrimidin-2-amine] | < 10 nM
